The subject of one data set is Yellow Mealworm Larvae. The data set can be described thus: Field trial, topical application. The class given is in vivo. Also on record: key: 0 = 0-10% mortality, 9 = 91-100% mortality (0-9 scale). Summed up: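 1 μL benzimidazole solution of set microgram content applied topically to larvae or adults. Mortality read at 24, 48 and 72 h where applicable, rated 0-9 (0 = 0-10%, 9 = 91-100%); values are average mortality per concentration.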

A further data set has as its system Buffalo Tree Hopper. The data set can be described thus: Field trial (first summer), contact. In kind it is in vivo. As to conditions: 125 ppm. The source says:
(§1) Infested plants are placed in 6 oz. prescription bottles filled with water to keep them from wilting. Cellucotton is wrapped around the plant stem and squeezed into the bottle neck to prevent the insects from drowning.
(§2) A DeVilbiss Special Atomizer (5004) is used at 10 psi to spray the test plant with different concentrations of compounds. The atomizer is held at arm's length to prevent blowing the insects off the host plant. After treating, the bottles are placed on a table covered with brown wrapping paper to catch the dead insects as they drop from the plant. The plants are spaced so the leaves or plants are not touching one another.
(§3) The results are read at 24, 48, and 72 hours when applicable. The rating scale is 0 to 9 where 0 = 0-10 percent and 9 = 91-100 percent mortality.
(§4) During the previous summer similar field trials were conducted employing the same tests as heretofore but with some additional species of insects not included in the later tests. The results listed below are for tests in which an insect mortality was established by a given application route and at a given concentration in a particular test. The same 0 - 9 scoring system is used as is the designation of compounds by alphabetical symbols.

The test system of a further data set is Differential Grasshopper. The data set is described as follows: Field trial (first summer), contact. In kind it is in vivo. The settings on record: 125 ppm.
From the text: as §1, §2, §3, §4

Another data set deals with Meadow Grasshopper. The data set is described as follows: Field trial (first summer), contact. The class given is in vivo. The settings on record: 125 ppm.
From the text: as §1, §2, §3, §4

Data set [1] relates to Boll Weevil. The data set can be described thus: Field trial (first summer), topical. The class given is in vivo, Anthonomus grandis. As to conditions: .078125 μg/μl. How it is done: (§5) In a variation of the above test, 1 microliter of a test solution containing a predetermined number of micrograms of benzimidazole was applied directly to larvae or adult insects.
as §4

The test system of the next data set is Picnic Beetle. The data set is described as follows: Field trial (first summer), topical. The class given is in vivo. As to conditions: .078125 μg/μl. Here is the method: as §5, §4
The subject of another data set is Confused Flour Beetle. The data set is described as follows: Field trial (first summer), topical. In kind it is in vivo. How it is done: as §5, §4
The subject of the next data set is Mexican Bean Beetle. The data set is described as follows: Field trial (first summer), topical. The class given is in vivo, Epilachna varivestis. The settings on record: .25 μg/μl. Here is the method: as §5, §4
Another data set deals with House Fly. The data set is described as follows: Housefly (Contact) Test. The class given is in vivo, Musca domestica (Diptera). As to conditions: 50 ppm, 24 h. Here is the method: Rearing cages containing four-day old adult house flies are chilled at 35°-40° F. for about 1 hour. One hundred flies are transferred from the rearing cage to each test cage using a small scoop. The caged flies are kept for 1-2 hours at 70°-80° F. The cages are sprayed in the same manner as described for the milkweed bug with 5 ml. of the test formulation. Two unsprayed cages are held as controls and two cages are sprayed with a 50 ppm DDT formulation as a reference standard. Mortality counts are made 24 hours after spraying. […] The same rating scale is employed as heretofore.

The next data set has as its system Two-spotted Spider Mite. The data set can be described thus: Two-spotted Spider Mite test. In kind it is in vivo, Tetranychus urticae (Acarina). As to conditions: 25 ppm, 48 h. Here is the method:
The procedure in this test is the same as that in the previous aphid test, except that about 100 two-spotted spider mites from a stock colony raised on squash plants are transferred to a cut squash cotyledon. The mortality is estimated 48 hours after spraying. The same rating scale is used.

Another data set has as its system Oriental Cockroach. The data set is described as follows: Oriental Roach Test. As to conditions: 24 h. In kind it is in vivo, Blatta orientalis (Orthoptera). How it is done: A rearing pan of late instar (3-4 months old) roaches is placed in a cold room for about 1 hour. Ten nymphs are taken from the pan and placed in each cage and the caged insects are kept at 70°-80° F. for 1 hour. The test cages are then sprayed in the manner indicated above in the milkweed bug test using 5 ml. of a formulation containing a specified amount of the insecticide. The test cages are held for 72 hours during which time the cockroaches are neither fed nor watered. Controls consist of 2 unsprayed cages, two cages sprayed with the formulation alone and 2 cages with a formulation containing 1000 ppm of heptachlor. Mortality counts are made 24 hours after spraying by shaking the cages lightly. All cockroaches remaining in the bottom are counted as dead.

In data set [2] the test system is Boll Weevil. The data set can be described thus: Boll Weevil Test. In kind it is in vivo, Anthonomus grandis (Coleoptera). The settings on record: 48 h. The source says: The procedure is identical to that employed for the Mexican bean beetle and the Southern armyworm, except that 10 adult boll weevils are placed on cotton leaves that have been dipped into formulations of the test compounds. The same rating scale is used.

The test system of data set [3] is Southern Corn Rootworm Adults. The data set is described as follows: Field trial, stomach poison test. The class given is in vivo. The procedure, abridged: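 Leaves from infested plants sprayed (10 psi) or dipped in test compound at several concentrations, air-dried, then five or ten insects placed per dish, one or two replicates. Mortality scored 0 to 9 at 24, 48 and 72 h, averaged per concentration.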

Data set [4] in a line: Solubility of sodium salt. The class given is physicochemical.
The test system of data set [5] is Southern Corn Rootworm Adults. The data set can be described thus: Field trial, contact poison test. The class given is in vivo. The procedure, abridged:
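Mortality after direct spraying was scored at 24, 48 and 72 hours where applicable, using a 0–9 rating tied to 10% bands. Plants bearing insects received atomized compound at 10 psi over a range of concentrations.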

For the next data set, the system named is Southern armyworm larvae. As to conditions: 250 ppm; cited from earlier work.
A further data set has as its system oriental roaches. The settings on record: 250 ppm; cited from earlier work.
The next data set concerns house flies. The settings on record: 1000 ppm; cited from earlier work.
The next data set concerns boll weevils. As to conditions: 250 ppm; cited from earlier work.
The next data set concerns milkweed bugs. As to conditions: 250 ppm; cited from earlier work.

As for `C=CCOC(=O)n1c(C(F)(F)F)nc2c([N+](=O)[O-])cc(C(F)(F)F)cc21` [K, allyl 2,6-bis(trifluoromethyl)-4-nitro-1-benzimidazolecarboxylate], the values for the average mortality rating in the data set with Yellow Mealworm Larvae (0.03 μg/μl), with Yellow Mealworm Larvae (0.07 μg/μl) and with Yellow Mealworm Larvae (0.15 μg/μl) were 1, 3 and 6, respectively. The insect mortality rating in the data set on Buffalo Tree Hopper, in the data set with Differential Grasshopper, in the data set on Meadow Grasshopper, in the data set with Boll Weevil [1], in the data set with Picnic Beetle and in the data set with Confused Flour Beetle (.078125 μg/μl) was 9 (91-100 percent mortality) throughout. Besides, the insect mortality rating with Mexican Bean Beetle was 9 (91-100 percent mortality).

In the case of `O=[N+]([O-])c1cc(C(F)(F)F)cc2nc(C(F)(F)F)[nH]c12.[Na]` [B, 2,6-bis(trifluoromethyl)-4-nitrobenzimidazole, sodium salt], the mortality rating in the data set on House Fly was 8.5; in the data set with Two-spotted Spider Mite, 8.5; in the data set on Oriental Cockroach (25 ppm), “.5”; in the data set with Oriental Cockroach (100 ppm) it was 3.5; in the data set with Boll Weevil [2] (25 ppm), 8.5; in the data set with Boll Weevil [2] (250 ppm) it was 8.5. Further, the insect mortality rating in the data set on Boll Weevil [1], in the data set with Picnic Beetle and in the data set on Confused Flour Beetle (.3125 μg/μl) was 9 (91-100 percent mortality) in each case. Besides, the average mortality rating was 4 in data set [3] (25 ppm); 5 in data set [3] (50 ppm); 9 (91-100 percent mortality) in data set [3] (100 ppm); 0 (0-10 percent) in [5] (25 ppm); 3 in [5] (50 ppm); 8 in data set [5] (100 ppm). For the same compound, in data set [4] (acid), the solubility in acid result is “insoluble in acid”. Besides, the solubility in water result in [4] (water) is on record as “water soluble”.

Take `FC(F)(F)c1nc2ccc(Cl)c(Cl)c2[nH]1` [2-trifluoromethyl-4,5-dichlorobenzimidazole]: the insecticidal activity entry is listed as “complete kill” in the data set with Southern armyworm larvae; “without action” in the data set on oriental roaches; “excellent only at 1000 ppm” in the data set with house flies; “without action” with boll weevils; “without action” in the data set on milkweed bugs.

(Values after patent publication US4122184A, “Benzimidazole insecticides” (priority 1977, dated 1978).)
